According to PubChem BioAssay (NCI):
“And” between values parts separate entries of the source, which are not always exact repeats. Identical values can stand only once.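 GI50 is the concentration that inhibits growth by half. TGI denotes the concentration required for complete inhibition of growth.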

Columns and labels:
Assay in all cases: NCI tumour cell line growth inhibition, 384-well format
[1] = tested on: SF-539 CNS
[2] = tested on: DU-145 prostate
[3] = tested on: RPMI-8226 leukemia
[4] = tested on: SNB-19 CNS
[5] = tested on: ACHN renal
[6] = tested on: NCI-H23 lung
[7] = tested on: OVCAR-3 ovarian
[8] = tested on: M14 melanoma
[9] = tested on: MDA-MB-435 melanoma
[10] = tested on: SN12C renal
[11] = tested on: PC-3 prostate
[12] = tested on: SF-295 CNS
[13] = tested on: HS 578T breast
[14] = tested on: HOP-92 NSCLC
[15] = tested on: RXF 393 renal
[16] = tested on: COLO 205 colon
[17] = tested on: MALME-3M melanoma
[18] = tested on: CAKI-1 renal
[19] = tested on: SK-OV-3 ovarian
[20] = tested on: UACC-62 melanoma
[21] = tested on: OVCAR-8 ovarian
[22] = tested on: NCI-H322M lung
[23] = tested on: CCRF-CEM leukemia
[24] = tested on: MDA-MB-231 breast
[25] = tested on: HOP-62 NSCLC
[26] = tested on: KM12 colon
[27] = tested on: HT29 colon
[28] = tested on: SF-268 CNS
[29] = tested on: HCC-2998 colon
[30] = tested on: NCI/ADR-RES ovarian
[31] = tested on: U251 glioblastoma
[32] = tested on: A549 NSCLC
[33] = tested on: A498 renal
[34] = tested on: HL-60(TB) leukemia
[35] = tested on: SK-MEL-2 melanoma
[36] = tested on: MOLT-4 leukemia
[37] = tested on: UACC-257 melanoma
[38] = tested on: BT-549 breast
[39] = tested on: NCI-H226 lung
[40] = tested on: OVCAR-4 ovarian
[41] = tested on: K-562 leukemia
[42] = tested on: OVCAR-5 ovarian
[43] = tested on: NCI-H522 lung
[44] = tested on: MDA-MB-468 breast
[45] = tested on: SK-MEL-28 melanoma
[46] = tested on: 786-0 renal
[47] = tested on: SR leukemia
[48] = tested on: SNB-75 CNS
[49] = tested on: EKVX NSCLC
[50] = tested on: T-47D breast
[51] = tested on: LOX IMVI melanoma
[52] = tested on: NCI-H460 NSCLC
[53] = tested on: IGROV1 ovarian
[54] = tested on: HCT-116 colon
[55] = tested on: HCT-15 colon
[56] = tested on: MCF7 breast
[57] = tested on: TK-10 renal
[58] = tested on: SW-620 colon
[59] = tested on: SK-MEL-5 melanoma

CC(=O)c1c(C)c2cnc(Nc3ccc(N4CCNCC4)cn3)nc2n(C2CCCC2)c1=O
TGI [1]: 16700 nM and > 100000 nM
TGI [2]: 14.6 µM and > 100 µM
GI50 [3]: 422 nM
TGI [3]: > 100 µM
TGI [4]: 13.9 µM and > 100 µM
GI50 [5]: 976 nM and 3180 nM
TGI [6]: 15.1 µM and > 100 µM
TGI [7]: 16.4 µM and > 100 µM
TGI [8]: 11000 nM and > 100000 nM
TGI [9]: 11.6 µM and > 100 µM
TGI [10]: 13.3 µM and > 100 µM
TGI [11]: 15.4 µM and > 100 µM
TGI [12]: 13.7 µM and > 100 µM
GI50 [13]: 10100 nM and > 100000 nM
TGI [13]: 17.2 µM and > 100 µM
TGI [14]: 15 µM and > 100 µM
GI50 [15]: 11.4 µM and > 100 µM
TGI [15]: 18.7 µM and > 100 µM
TGI [16]: 11 µM and > 100 µM
TGI [17]: 11.2 µM and > 100 µM
GI50 [18]: 686 nM and 698 nM
TGI [19]: 14.8 µM and > 100 µM
TGI [20]: 11400 nM and > 100000 nM
TGI [21]: 16.4 µM and > 100 µM
TGI [22]: 14.5 µM and > 100 µM
GI50 [23]: 191 nM
TGI [23]: 5340 nM
TGI [24]: 14.4 µM and > 100 µM
TGI [25]: 13.7 µM and > 100 µM
GI50 [26]: 713 nM and 388 nM
TGI [27]: 12.1 µM and > 100 µM
TGI [28]: 13000 nM and > 100000 nM
TGI [29]: 10.9 µM and > 100 µM
TGI [30]: 17.1 µM and > 100 µM
TGI [31]: 12.2 µM and > 100 µM
TGI [32]: 10.8 µM and > 100 µM
TGI [33]: 13.1 µM and > 100 µM
GI50 [34]: 81.1 nM and 37.9 nM
GI50 [35]: 9.24 µM
TGI [35]: 16.2 µM
GI50 [36]: 121 nM and 123 nM
TGI [36]: 5.1 µM and 4.65 µM
TGI [37]: 13.3 µM and > 100 µM
TGI [38]: 14300 nM and > 100000 nM
TGI [39]: 13.1 µM and > 100 µM
GI50 [40]: 11200 nM and > 100000 nM
TGI [40]: 18.6 µM and > 100 µM
GI50 [41]: 2640 nM
TGI [41]: 9.38 µM
TGI [42]: 12 µM and > 100 µM
TGI [43]: 15 µM and > 100 µM
TGI [44]: 10.1 µM and > 100 µM
TGI [45]: 13 µM and > 100 µM
TGI [46]: 10.3 µM and > 100 µM
GI50 [47]: 428 nM and 198 nM
TGI [47]: 3830 nM and 634 nM
TGI [48]: 14.2 µM and > 100 µM
TGI [49]: 15.4 µM and > 100 µM
TGI [50]: 14.8 µM and > 100 µM
GI50 [51]: 25400 nM
TGI [51]: > 100000 nM

CNC(=O)c1cc(Oc2ccc(NC(=O)Nc3cc(C(C)(C)C)nn3-c3ccc4ncccc4c3)c(F)c2)ccn1
GI50 [1]: 1400 nM
TGI [1]: 2730 nM
GI50 [2]: 2220 nM
TGI [2]: 8.64 µM
GI50 [3]: 1910 nM
TGI [3]: 3.44 µM
GI50 [4]: 3690 nM
TGI [4]: > 100 µM
GI50 [5]: 446 nM
TGI [5]: 4.26 µM
GI50 [6]: 490 nM
TGI [6]: 1.58 µM
GI50 [7]: 2390 nM
TGI [7]: 5.22 µM
GI50 [8]: 97.7 nM
TGI [8]: 1020 nM
GI50 [9]: 477 nM
TGI [9]: 1.7 µM
GI50 [10]: 679 nM
TGI [10]: 4.18 µM
GI50 [11]: 3160 nM
TGI [11]: 9.47 µM
GI50 [12]: 2210 nM
TGI [12]: > 100 µM
GI50 [52]: 1160 nM
TGI [52]: 4.38 µM
GI50 [53]: 442 nM
TGI [53]: 7.53 µM
GI50 [13]: 547 nM
TGI [13]: 1.64 µM
GI50 [14]: 605 nM
TGI [14]: > 100 µM
GI50 [15]: 0.499 µM
TGI [15]: 1.57 µM
GI50 [16]: 391 nM
TGI [16]: 2.81 µM
GI50 [17]: 34.3 nM
TGI [17]: 0.308 µM
GI50 [18]: 359 nM
TGI [18]: > 100 µM
GI50 [19]: 1050 nM
TGI [19]: > 100 µM
GI50 [20]: 32.8 nM
TGI [20]: 612 nM
GI50 [21]: 1740 nM
TGI [21]: 4.3 µM
GI50 [22]: 2580 nM
TGI [22]: 9.5 µM
GI50 [23]: 1370 nM
TGI [23]: 2760 nM
GI50 [24]: 558 nM
TGI [24]: > 100 µM
GI50 [25]: 1740 nM
TGI [25]: 3.97 µM
GI50 [54]: 937 nM
TGI [54]: > 100 µM
GI50 [55]: 2340 nM
TGI [55]: 6.88 µM
TGI [26]: 6.36 µM
GI50 [56]: 1590 nM
TGI [56]: > 100 µM
GI50 [27]: 520 nM
TGI [27]: > 100 µM
GI50 [28]: 192 nM
TGI [28]: 752 nM
GI50 [57]: 1210 nM
TGI [57]: 4.4 µM
GI50 [29]: 2140 nM
TGI [29]: 4.73 µM
GI50 [30]: 2530 nM
TGI [30]: 6.34 µM
GI50 [31]: 1930 nM
TGI [31]: 4.95 µM
GI50 [32]: 1180 nM
TGI [32]: 23.2 µM
GI50 [33]: 2410 nM
TGI [33]: 9.32 µM
GI50 [58]: 2740 nM
TGI [58]: 5.71 µM
GI50 [34]: 724 nM
TGI [34]: 1530 nM
GI50 [36]: 1540 nM
TGI [36]: 2.94 µM
GI50 [37]: 358 nM
TGI [37]: 1.71 µM
GI50 [59]: 552 nM
TGI [59]: 1830 nM
GI50 [38]: 632 nM
TGI [38]: 1880 nM
GI50 [39]: 109 nM
TGI [39]: > 100 µM
GI50 [40]: 2180 nM
TGI [40]: 4.99 µM
TGI [41]: > 100 µM
GI50 [42]: 884 nM
TGI [42]: 58 µM
GI50 [43]: 1450 nM
TGI [43]: 3.01 µM
GI50 [44]: 2820 nM
TGI [44]: 4.37 µM
GI50 [45]: 310 nM
TGI [45]: 1.2 µM
GI50 [46]: 1470 nM
TGI [46]: 5.19 µM
GI50 [48]: 1070 nM
TGI [48]: 2.28 µM
GI50 [49]: 1490 nM
TGI [49]: 4.28 µM
GI50 [50]: 853 nM
TGI [50]: 4.82 µM
GI50 [51]: 281 nM
TGI [51]: 961 nM

COc1cnccc1Nc1nc(-c2nn(Cc3c(F)cc(OCCO)cc3F)c3ccccc23)ncc1OC
GI50 [1]: 1450 nM
TGI [1]: 2760 nM
GI50 [2]: 1730 nM
TGI [2]: 3.44 µM
GI50 [3]: 841 nM
TGI [3]: 2.09 µM
GI50 [4]: 1600 nM
TGI [4]: 3.08 µM
GI50 [6]: 1630 nM
TGI [6]: 3.15 µM
GI50 [7]: 1610 nM
TGI [7]: 3.1 µM
GI50 [8]: 1400 nM
TGI [8]: 2860 nM
GI50 [9]: 1730 nM
TGI [9]: 3.36 µM
GI50 [10]: 1310 nM
TGI [10]: 2.65 µM
GI50 [11]: 1870 nM
TGI [11]: 3.36 µM
GI50 [52]: 1060 nM
TGI [52]: 2.28 µM
GI50 [53]: 1940 nM
TGI [53]: 4.47 µM
GI50 [13]: 1750 nM
TGI [13]: 3.89 µM
GI50 [14]: 902 nM
TGI [14]: 2.19 µM
GI50 [16]: 2270 nM
TGI [16]: > 33.3 µM
GI50 [17]: 1770 nM
TGI [17]: 3.2 µM
GI50 [18]: 1900 nM
TGI [18]: 8.3 µM
GI50 [19]: 1750 nM
TGI [19]: 3.93 µM
GI50 [20]: 1500 nM
TGI [20]: 2860 nM
GI50 [23]: 395 nM
TGI [23]: 1740 nM
GI50 [24]: 1410 nM
TGI [24]: 3.22 µM
GI50 [25]: 783 nM
TGI [25]: 2.06 µM
GI50 [54]: 1620 nM
TGI [54]: 3.6 µM
GI50 [55]: 1200 nM
TGI [55]: 2.51 µM
GI50 [26]: 1270 nM
TGI [26]: 3.13 µM
GI50 [27]: 1850 nM
TGI [27]: 5.48 µM
GI50 [28]: 845 nM
TGI [28]: 2720 nM
GI50 [57]: 2040 nM
TGI [57]: 4.14 µM
GI50 [29]: 1760 nM
TGI [29]: 4.47 µM
GI50 [30]: 1870 nM
TGI [30]: 3.9 µM
GI50 [31]: 1440 nM
TGI [31]: 2.78 µM
GI50 [32]: 1540 nM
TGI [32]: 2.92 µM
GI50 [33]: 1190 nM
TGI [33]: 2.43 µM
GI50 [58]: 1470 nM
TGI [58]: 2.84 µM
GI50 [34]: 838 nM
TGI [34]: 2160 nM
GI50 [35]: 1.54 µM
TGI [35]: 2.88 µM
GI50 [36]: 126 nM
TGI [36]: 0.548 µM
GI50 [59]: 1510 nM
TGI [59]: 2850 nM
GI50 [38]: 1440 nM
TGI [38]: 2800 nM
GI50 [40]: 1640 nM
TGI [40]: 3.03 µM
GI50 [41]: 1210 nM
TGI [41]: 2.56 µM
GI50 [42]: 2860 nM
TGI [42]: 7.17 µM
GI50 [43]: 768 nM
TGI [43]: 2.03 µM
GI50 [44]: 927 nM
TGI [44]: 2.13 µM
GI50 [45]: 1720 nM
TGI [45]: 3.12 µM
GI50 [46]: 1530 nM
TGI [46]: 2.89 µM
GI50 [47]: 261 nM
TGI [47]: 1250 nM
GI50 [49]: 1540 nM
TGI [49]: 3.16 µM
GI50 [51]: 1250 nM
TGI [51]: 2720 nM
